Measurements: BindingDB's records for doi:10.1111/cbdd.12732 (Yogi Vemana University, 2016)

target: Acetylcholinesterase (Electrophorus electricus, UniProt O42275); test: AChE Inhibitory Assay; details: pH 7.7
Procedure: The mixture was incubated at 25 °C for 5 min. Subsequently, the enzymatic reaction was initiated by addition of 15 µL of 1 mM of acetylthiocholine iodide or butyrylthiocholine iodide (according to the respective enzyme), and the mixture was again incubated for 5 min at 25 °C. The rate of absorbance change was measured at 412 nm for 6 min using a microplate reader (Bio-Rad 680, Germany). Galantamine was applied as positive drug.

Acetylcholinesterase, sequence (O42275 whole entry): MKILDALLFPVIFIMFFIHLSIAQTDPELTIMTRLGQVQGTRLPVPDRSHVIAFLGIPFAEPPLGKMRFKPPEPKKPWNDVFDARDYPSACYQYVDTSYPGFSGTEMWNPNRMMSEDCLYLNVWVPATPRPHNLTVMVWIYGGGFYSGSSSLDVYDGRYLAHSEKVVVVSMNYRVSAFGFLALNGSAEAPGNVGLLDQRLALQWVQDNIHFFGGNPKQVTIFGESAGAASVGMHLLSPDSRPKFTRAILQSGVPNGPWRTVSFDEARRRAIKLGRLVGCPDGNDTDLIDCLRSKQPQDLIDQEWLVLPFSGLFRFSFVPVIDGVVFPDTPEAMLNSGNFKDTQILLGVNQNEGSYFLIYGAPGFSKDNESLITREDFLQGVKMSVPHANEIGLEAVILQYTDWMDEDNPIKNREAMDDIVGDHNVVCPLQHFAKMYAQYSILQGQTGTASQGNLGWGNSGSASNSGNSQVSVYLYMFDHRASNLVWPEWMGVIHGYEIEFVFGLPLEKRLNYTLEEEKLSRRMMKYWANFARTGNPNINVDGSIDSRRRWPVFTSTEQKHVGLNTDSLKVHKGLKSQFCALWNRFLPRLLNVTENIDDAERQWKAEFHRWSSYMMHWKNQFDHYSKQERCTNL

`CC(NC(=O)c1cc2c(ccc3ccc(=O)oc32)oc1=N)c1ccccc1` (configuration not stated) [8-imino-2-oxo-N-(1-phenylethyl)-2H,8H-pyrano[2,3-f]chromene-9-carboxamide (4h)] and `COc1ccc(C(C)NC(=O)c2cc3c(ccc4ccc(=O)oc43)oc2=N)cc1` (configuration not stated) [8-imino-N-(1-(4-methoxyphenyl)ethyl)-2-oxo-2H,8Hpyrano[2,3-f]chromene-9-carboxamide (4j)] are within 1.5-fold of each other in IC50: 462 nM for the first, 390 nM for the second.

Compared with `N=c1oc2ccc3ccc(=O)oc3c2cc1C(=O)N1CCOCC1` [8-imino-9-(morpholine-4-carbonyl)-2H,8H-pyrano[2,3-f]chromen-2-one (4f)], `CNC(=O)c1cc2c(ccc3ccc(=O)oc32)oc1=N` [8-imino-N-methyl-2-oxo-2H,8H-pyrano[2,3-f]chromene-9-carboxamide (4a)] is 1.8-fold higher in IC50: 226 nM for the first, 415 nM for the second.

Going from `COc1ccccc1OCCNC(=O)c1cc2c(ccc3ccc(=O)oc32)oc1=N` [8-imino-N-(2-(2-methoxyphenoxy)ethyl)-2-oxo-2H,8H-pyrano[2,3-f]chromene-9-carboxamide (4q)] to `N=c1oc2ccc3ccc(=O)oc3c2cc1C(=O)NCc1ccccc1Br` [N-(2-bromobenzyl)-8-imino-2-oxo-2H,8H-pyrano[2,3-f]chromene-9-carboxamide (4l)], the IC50 falls from 440 nM to 27 nM (16-fold).

Compared with `COc1ccc(CNC(=O)c2cc3c(ccc4ccc(=O)oc43)oc2=N)c(OC)c1` [N-(2,4-dimethoxybenzyl)-8-imino-2-oxo-2H,8H-pyrano[2,3-f]chromene-9-carboxamide (4k)], `N=c1oc2ccc3ccc(=O)oc3c2cc1C(=O)NCc1ccccc1Cl` [N-(2-chlorobenzyl)-8-imino-2-oxo-2H,8H-pyrano[2,3-f]chromene-9-carboxamide (4n)] is 10-fold lower in IC50: 300 nM for the first, 30 nM for the second. The second is the more potent here.

Going from `N=c1oc2ccc3ccc(=O)oc3c2cc1C(=O)NCc1cccc(Br)c1` [N-(3-bromobenzyl)-8-imino-2-oxo-2H,8H-pyrano[2,3-f]chromene-9-carboxamide (4m)] to `N=c1oc2ccc3ccc(=O)oc3c2cc1C(=O)NCc1cccc(Cl)c1` [N-(3-chlorobenzyl)-8-imino-2-oxo-2H,8H-pyrano[2,3-f]chromene-9-carboxamide (4o)], the IC50 rises from 13 nM to 88 nM (6.8-fold).

First: Cc1cc(=O)oc2c1ccc1oc(=N)c(C(=O)NCc3ccc(C(C)(C)C)cc3)cc12 [N-(4-(tert-butyl)benzyl)-8-imino-4-methyl-2-oxo-2H,8H-pyrano[2,3-f]chromene-9-carboxamide (4p)]
Second: N=c1oc2ccc3ccc(=O)oc3c2cc1C(=O)NCc1ccccc1 [N-benzyl-8-imino-2-oxo-2H,8H-pyrano[2,3-f]chromene-9-carboxamide (4g)]
The IC50 of the first is 6.5-fold lower: 77 nM for the first, 497 nM for the second. The first is the more potent here.

First: N=c1oc2ccc3ccc(=O)oc3c2cc1C(=O)NC(c1ccccc1)c1ccccc1 [N-benzhydryl-8-imino-2-oxo-2H,8H-pyrano[2,3-f]chromene-9-carboxamide (4i)]
Second: CCNC(=O)c1cc2c(ccc3ccc(=O)oc32)oc1=N [N-ethyl-8-imino-2-oxo-2H,8H-pyrano[2,3-f]chromene-9-carboxamide (4b)]
The IC50 of the first is 2.6-fold higher: 669 nM for the first, 259 nM for the second.

First: N=c1oc2ccc3ccc(=O)oc3c2cc1C(=O)NC1CCCCC1 [N-cyclohexyl-8-imino-2-oxo-2H,8H-pyrano[2,3-f]chromene-9-carboxamide (4e)]
Second: N=c1oc2ccc3ccc(=O)oc3c2cc1C(=O)NC1CC1 [N-cyclopropyl-8-imino-2-oxo-2H,8H-pyrano[2,3-f]chromene-9-carboxamide (4d)]
The IC50 of the first is 4.7-fold lower: 169 nM for the first, 799 nM for the second. The first is the more potent here.

Compound `CCCCCCCCCCCCNC(=O)c1cc2c(ccc3ccc(=O)oc32)oc1=N` [N-dodecyl-8-imino-2-oxo-2H,8H-pyrano[2,3-f]chromene-9-carboxamide (4c)] has an IC50 of 83 nM.
